Source: ChEMBL document CHEMBL6121036, “Evaluation of Cereblon-Directing Warheads for the Development of Orally Bioavailable PROTACs” (J Med Chem, 2025)
≈ marks a conversion by molar mass, not a printed value. Calls of active or inactive are those of the source. No cut-off for these calls is given here.

Tests used:
[1] = target: T1, Protein cereblon/Bromodomain-containing protein 4/DNA damage-binding protein 1 (Homo sapiens) (UniProt O60885+Q96SW2+Q16531); test: Binding affinity to his-tagged CRBN/DDB1/GST-tagged BRD4 (49 to 170 residues)(unknown origin) assessed as ternary complex formation (AUC) incubated for 1 hr by luminescence based Alphascreen assay; assay type: protein assay
[2] = system: MV4-11; test: Cytotoxicity against human MV4-11 cells assessed as reduction in cell viability incubated for 72 hrs by cell-titer glo assay; assay type: functional, cell-based; settings: MV4-11, 72 h
[3] = target: T1, Protein cereblon/Bromodomain-containing protein 4/DNA damage-binding protein 1 (Homo sapiens); test: Binding affinity to his-tagged CRBN/DDB1/GST-tagged BRD4 (49 to 170 residues)(unknown origin) assessed as ternary complex formation by measuring AUC incubated for 1 hr by luminescence based Alphascreen assay; assay type: protein assay
[4] = target: T2, Protein cereblon/Bromodomain-containing protein 4 (Homo sapiens, UniProt O60885+Q96SW2); test: PROTAC activity at CRBN/Hibit-tagged BRD4 (unknown origin) expressed in HEK293 cells co-expressing LgBiT assessed as degradation rate incubated for 24 hrs by […] glo-max assay; assay type: cell-based
[5] = system: HEK293; test: Cytotoxicity against HEK293 cells expressing LgBiT fused HiBiT-BRD2 measured after 24 hrs by cell titer-glo assay; assay type: toxicity, cell-based; settings: human, hek293, 24 h
[6] = target: T2, Protein cereblon/Bromodomain-containing protein 4; test: PROTAC activity at CRBN/Hibit-tagged BRD4 (unknown origin) expressed in HEK293 cells co-expressing LgBiT assessed as degradation of BRD4 incubated for 24 hrs by […] glo-max assay; assay type: cell-based
[7] = Metabolic stability in mouse liver microsomes assessed as half life; assay type: ADME, Microsome; settings: for half-life: liver microsomes
[8] = Kinetic aqueous solubility of the compound at pH 7.4; assay type: physicochemical; settings: read-out: Kinetic_solubility
[9] = system: HD-MB03; test: Cytotoxicity against human HD-MB03 cells assessed as reduction in cell viability incubated for 72 hrs by cell-titer glo assay; assay type: functional, cell-based; settings: HD-MB03, 72 h
[10] = target: T2, Protein cereblon/Bromodomain-containing protein 4; test: PROTAC activity at CRBN/Hibit-tagged BRD4 (unknown origin) expressed in HEK293 cells co-expressing LgBiT assessed as degradation of BRD4 incubated for 24 hrs by […] glo-max assay relative to control; assay type: cell-based
[11] = Effect on FGL2 level in human MV4-11 cells assessed as fold change at 100 nM measured after 4 hrs; assay type: functional
[12] = target: T3, Protein cereblon/Bromodomain-containing protein 2 (Homo sapiens) (UniProt P25440+Q96SW2); test: PROTAC activity at CRBN/Hibit-tagged CRISPR BRD2 (unknown origin) expressed in HEK293 cells coexpressing LgBiT assessed as degradation of BRD2 measured after 10 to 14 hrs by […] glo-max assay; assay type: cell-based; settings: time 10-14 hrs
[13] = Effect on CCND3 level in human MV4-11 cells assessed as fold change at 100 nM measured after 4 hrs; assay type: functional
[14] = Effect on NOP53 level in human MV4-11 cells assessed as fold change at 100 nM measured after 4 hrs; assay type: functional
[15] = Permeability in MDCK-II cells incubated for 1 hr by UPLC/MS/UV analysis; assay type: ADME, cell-based, Canis lupus familiaris; settings: dog, read-out: permeability
[16] = Effect on NSA2 level in human MV4-11 cells assessed as fold change at 100 nM measured after 4 hrs; assay type: functional
[17] = Effect on PLAU level in human MV4-11 cells assessed as fold change at 100 nM measured after 4 hrs; assay type: functional
[18] = Effect on BRD4 level in human MV4-11 cells assessed as fold change at 100 nM measured after 4 hrs; assay type: functional
[19] = Effect on RNF166 level in human MV4-11 cells assessed as fold change at 100 nM measured after 4 hrs; assay type: functional
[20] = target: T2, Protein cereblon/Bromodomain-containing protein 4; test: PROTAC activity at CRBN/Hibit-tagged CRISPR BRD4 (unknown origin) expressed in HEK293 cells co-expressing LgBiT assessed as degradation of BRD4 by […] glo-max assay; assay type: cell-based
[21] = Effect on MCL1 level in human MV4-11 cells assessed as fold change at 100 nM measured after 4 hrs; assay type: functional
[22] = target: Protein cereblon (Homo sapiens) (UniProt Q96SW2); test: Binding affinity to CRBN (unknown origin)
[23] = AUC last in female CD1 mouse at 10 mg/kg, po measured upto 24 hrs by LC-MS/MS analysis; assay type: ADME, organism-based; settings: in vivo
[24] = Cmax in female CD1 mouse at 10 mg/kg, po measured upto 24 hrs by LC-MS/MS analysis; assay type: ADME, organism-based; settings: in vivo
[25] = target: T3, Protein cereblon/Bromodomain-containing protein 2 (Homo sapiens); test: PROTAC activity at CRBN/Hibit-tagged CRISPR BRD2 (unknown origin) expressed in HEK293 cells coexpressing LgBiT assessed as degradation of BRD2 by […] glo-max assay; assay type: cell-based
[26] = Effect on ZBTB21 level in human MV4-11 cells assessed as fold change at 100 nM measured after 4 hrs; assay type: functional
[27] = Effect on AURKA level in human MV4-11 cells assessed as fold change at 100 nM measured after 4 hrs; assay type: functional
[28] = target: T2, Protein cereblon/Bromodomain-containing protein 4; test: PROTAC activity at CRBN/Hibit-tagged CRISPR BRD4 (unknown origin) expressed in HEK293 cells co-expressing LgBiT assessed as degradation of BRD4 by […] glo-max assay relative to control; assay type: cell-based
[29] = Effect on BRD3 level in human MV4-11 cells assessed as fold change at 100 nM measured after 4 hrs; assay type: functional
[30] = target: T2, Protein cereblon/Bromodomain-containing protein 4; test: PROTAC activity at CRBN/Hibit-tagged CRISPR BRD4 (unknown origin) expressed in HEK293 cells co-expressing LgBiT assessed as degradation of BRD4 measured after 18 to 24 hrs by […] glo-max assay; assay type: cell-based; settings: time 18-24 hrs
[31] = Effect on ZFP36L2 level in human MV4-11 cells assessed as fold change at 100 nM measured after 4 hrs; assay type: functional
[32] = Effect on BRD2 level in human MV4-11 cells assessed as fold change at 100 nM measured after 4 hrs; assay type: functional
[33] = Effect on CDC42EP3 level in human MV4-11 cells assessed as fold change at 100 nM measured after 4 hrs; assay type: functional
[34] = Effect on PLK1 level in human MV4-11 cells assessed as fold change at 100 nM measured after 4 hrs; assay type: functional
[35] = Effect on TP53 level in human MV4-11 cells assessed as fold change at 100 nM measured after 4 hrs; assay type: functional
[36] = Effect on FYTTD1 level in human MV4-11 cells assessed as fold change at 100 nM measured after 4 hrs; assay type: functional
[37] = target: T4, Protein cereblon/Bromodomain-containing protein 3 (Homo sapiens) (UniProt Q15059+Q96SW2); test: PROTAC activity at CRBN/Hibit-tagged CRISPR BRD3 (unknown origin) expressed in HEK293 cells co-expressing LgBiT assessed as degradation of BRD3 by […] glo-max assay; assay type: cell-based
[38] = target: T3, Protein cereblon/Bromodomain-containing protein 2 (Homo sapiens); test: PROTAC activity at CRBN/Hibit-tagged CRISPR BRD2 (unknown origin) expressed in HEK293 cells coexpressing LgBiT assessed as degradation of BRD2 by […] glo-max assay relative to control; assay type: cell-based
[39] = Stability in mouse plasma assessed as half life by UPLC-MS/MS analysis; assay type: ADME, cell-free
[40] = Effect on MYC level in human MV4-11 cells assessed as fold change at 100 nM measured after 4 hrs; assay type: functional
[41] = Permeability in human MV4-11 cells assessed as cell availability index relative to lenalidomide; assay type: ADME, cell-based
[42] = Effect on CCNF level in human MV4-11 cells assessed as fold change at 100 nM measured after 4 hrs; assay type: functional
[43] = target: T4, Protein cereblon/Bromodomain-containing protein 3 (Homo sapiens); test: PROTAC activity at CRBN/Hibit-tagged CRISPR BRD3 (unknown origin) expressed in HEK293 cells co-expressing LgBiT assessed as degradation of BRD3 measured after 13 to 16 hrs by […] glo-max assay; assay type: cell-based; settings: time 13-16 hrs
[44] = target: T4, Protein cereblon/Bromodomain-containing protein 3 (Homo sapiens); test: PROTAC activity at CRBN/Hibit-tagged CRISPR BRD3 (unknown origin) expressed in HEK293 cells co-expressing LgBiT assessed as degradation of BRD3 by […] glo-max assay relative to control; assay type: cell-based

## Cc1sc2c(c1C)C(c1ccc(Cl)cc1)=N[C@@H](CC(=O)NCCc1ccc(C3CCC(=O)NC3=O)cc1)c1nnc(C)n1-2 (some centres undefined)
[1]
  Activity: Active
[2]
  IC50: 180 pM
[3]
  AUC: 292000
[4]
  Activity: 0.733 fRLU/hr
[5]
  Activity: Non-toxic
[6]
  DC50: 190 pM
[7]
  half-life: 0.27 h
[8]
  solubility kinetic: 71.4 µM (≈ 43.9 µg/mL)
[9]
  IC50: 2230 pM
[10]
  Emax: 98%

## Cc1sc2c(c1C)C(c1ccc(Cl)cc1)=N[C@@H](CC(=O)N1CCC(CN3CCN(c4ccc5c(c4)n(C)c(=O)n5C4CCC(=O)NC4=O)CC3)CC1)c1nnc(C)n1-2 (some centres undefined)
[1]
  Activity: Active
[11]
  fold change (FC): -0.86
[12]
  Activity: Active
[13]
  fold change (FC): -0.86
[2]
  IC50: 30 pM
[14]
  fold change (FC): -0.87
[15]
  Papp at 1 h: 0.95 ×10⁻⁶ cm/s
[16]
  fold change (FC): -1.12
[17]
  fold change (FC): -1.08
[18]
  fold change (FC): -3.81
[19]
  fold change (FC): -0.24
[4]
  Activity: 0.343 fRLU/hr
[20]
  Activity: Active
[21]
  fold change (FC): -1.19
[22]
  Activity: Active
[23]
  AUC(0-t) at 24 h: 97 ng·h/mL
[24]
  Cmax: 23 ng/mL
[25]
  Activity: Active
[26]
  fold change (FC): -0.13
[27]
  fold change (FC): -1.01
[28]
  Activity: > 90%
[29]
  fold change (FC): -4.26
[5]
  Activity: Non-toxic
[30]
  Activity: Active
[6]
  DC50: 570 pM
[31]
  fold change (FC): -1.03
[32]
  fold change (FC): -3.63
[7]
  half-life: 2.17 h
[7]; microsomes
  t1/2: 2.17 h
[8]
  solubility kinetic: 74.5 µM (≈ 61.3 µg/mL)
[33]
  fold change (FC): -1.05
[34]
  fold change (FC): -0.76
[35]
  fold change (FC): 1.88
[9]
  IC50: 560 pM
[36]
  fold change (FC): -1.69
[10]
  Emax: 96.9%
[37]
  Activity: Active
[38]
  Activity: > 95%
[39]
  half-life: 68.4 h
[40]
  fold change (FC): -2.43
[41]
  Ratio: 3.7
[42]
  fold change (FC): -2.01
[43]
  Activity: Active
[44]
  Activity: > 95%
